Data published in patent US20240207395A1, “ADJUVANT ACTIVITY ENHANCER AND ADJUVANT COMPOSITION” (priority 2021, published 2024).
Ends that are not written are not given here. C10PNA = 10-mer peptide nucleic acid with ten cytosine bases

What was measured:
[1] = tested on: A/Kansas/14/2017 strain (A/H3N2); type: in vivo, BALB/c mice; conditions: for GMT (geometric mean IgG antibody titer) / GMT ratio to the non-adjuvanted group: BALB/c mice; for GMT (geometric mean IgG antibody titer): subcutaneous 0.1 mL, 0.6 μg HA/strain, serum 21 days after administration; for GMT ratio to the non-adjuvanted group: subcutaneous
[2] = tested on: B/Maryland/15/2016 strain (B/Victoria); type: in vivo, BALB/c mice; conditions: for GMT (geometric mean IgG antibody titer) / GMT ratio to the non-adjuvanted group: BALB/c mice; for GMT (geometric mean IgG antibody titer): subcutaneous 0.1 mL, 0.6 μg HA/strain, serum 21 days after administration; for GMT ratio to the non-adjuvanted group: subcutaneous

Substance | GMT (geometric mean IgG antibody titer) [1] | GMT ratio to the non-adjuvanted group ([1]; Day 21) | Subclass ratio of IgG1/IgG2a ([1]; Day 21) | GMT (geometric mean IgG antibody titer) [2] | GMT ratio to the non-adjuvanted group ([2]; Day 21) | Subclass ratio of IgG1/IgG2a ([2]; Day 21)
5′-[…]-3′ (SEQ ID NO: 9) [ODN1826] | 65838 | 5.1 | IgG2a dominant | 31152 | 2.1 | IgG2a dominant
MIP-03: HIV TAT-derived peptide of 13 amino acids (SEQ ID NO: 1) covalently bound at its C-terminal to C10PNA (GRKKRRQRRRPPQ-C10PNA) | 112071 | 8.7 |  | 25802 | 1.7 | 
